Laboratory results taken from patent publication US7314858B2, “Retrocyclins: antiviral and antimicrobial peptides” (priority 2001, dated 2008).
Several values for one entry are separate records, joined by “and”; a condition that tells them apart may be missing. Identical values can stand only once. Entries after “also recorded” stand apart in the source; their conditions may differ. Where a SMILES comes first, the peptide text is derived from it. Bridges are numbered along the chain shown (N, C = ends). [ ]: non-standard residue; d: D form.

What follows are molecules tested on HIV-1 strain IIIB (assay: HIV-1 IIIB infection of CD4+ PBMC, p24 antigen ELISA). Conditions: CD4+ PBMC, IIIB (X4), peptide 10-20 μg/ml.
Type: cell-based
Experimental: FIG. 5A-C. Anti-HIV-1 activity of retrocyclin. Two strains of HIV-1 and two types of human target cells were used. The IIIB strain is T-cell tropic (X4) and utilizes the CXCR4 co-receptor for entry; the JR-CSF strain is M-tropic (R5) and uses CCR5 for entry. PBMC signifies CD4^+-selected peripheral blood mononuclear cells. […] (A) Two concentrations of retrocyclin (2 μg/ml, 20 μg/ml), 20 μg/ml of the Rhesus circular defensin “RTD-1”, and 20 μg/ml of a horseshoe crab-derived peptide “T140”, reported to only prevent X4 infections, were tested in antiviral assays of against strain IIIB in H9 cells (n=2-6 per peptide; error bars indicate SEM). (B) To confirm our results with primary human cells, similar assays were performed utilizing IIIB virus and CD4^+ PBMC or (C) JR-CSF virus and CD4^+ PBMC. […] Average of duplicate experiments are reported for studies with PBMCs. Assay sensitivity=10 pg/ml.
Either HIV-1-permissive H9 cells were used as targets, or primary CD4^+ lymphocytes from HIV-1-seronegative donors generated from freshly purified peripheral blood mononuclear cells (PBMC) stimulated with a CD3-CD8 bispecific monoclonal antibody. […] These cells were maintained in RPMI containing 10% FCS supplemented with 2 mM glutamine, 100 U of penicillin/ml, 10 μg of streptomycin/ml, and 50 U of interleukin 2/ml (R10-50 media).
Examining the effect of adding retrocyclin at various times pre- and post-HIV-1 infection. […] Primary CD4^+ PBMC were incubated with HIV-IIIB (FIG. 6) or HIV-JR-CSF for 3 hours in the presence or absence of 20 μg/ml retrocyclin. The cells were subsequently washed in media, and incubated an additional 9 days. Retrocyclin (20 μg/ml) was added back to some of the cultures at time points specified in FIG. 6 and infection was monitored by p24 ELISA as previously described. […]

| Molecule | inhibition of HIV-1 replication (p24) |
| --- | --- |
| R9Y-Retrocyclin [RC-107] | lack of efficacy |
| I11Y-Retrocyclin (cyclo(GICRCICGRGYCRCICGR); disulfide (positions not given here); ring closure inferred; not fully specified (bridges)) [RC-105] | either inactive or only modestly active |
| I2Y-Retrocyclin (cyclo(GYCRCICGRGICRCICGR); disulfide (positions not given here); ring closure inferred; not fully specified (bridges)) [RC-104, cyclic …] | relatively ineffective |

The molecules below were run on HIV-1 strain JR-CSF (assay: HIV-1 JR-CSF infection of CD4+ PBMC, p24 antigen ELISA). Conditions: JR-CSF (R5), peptide 10-20 μg/ml.
Type: cell-based
Experimental: FIG. 5A-C. Anti-HIV-1 activity of retrocyclin. Two strains of HIV-1 and two types of human target cells were used. The IIIB strain is T-cell tropic (X4) and utilizes the CXCR4 co-receptor for entry; the JR-CSF strain is M-tropic (R5) and uses CCR5 for entry. PBMC signifies CD4^+-selected peripheral blood mononuclear cells. […] (A) Two concentrations of retrocyclin (2 μg/ml, 20 μg/ml), 20 μg/ml of the Rhesus circular defensin “RTD-1”, and 20 μg/ml of a horseshoe crab-derived peptide “T140”, reported to only prevent X4 infections, were tested in antiviral assays of against strain IIIB in H9 cells (n=2-6 per peptide; error bars indicate SEM). (B) To confirm our results with primary human cells, similar assays were performed utilizing IIIB virus and CD4^+ PBMC or (C) JR-CSF virus and CD4^+ PBMC. Peptides were not cytotoxic at indicated concentrations, measured by trypan blue exclusion. Average of duplicate experiments are reported for studies with PBMCs. Assay sensitivity=10 pg/ml.
Either HIV-1-permissive H9 cells were used as targets, or primary CD4^+ lymphocytes from HIV-1-seronegative donors generated from freshly purified peripheral blood mononuclear cells (PBMC) stimulated with a CD3-CD8 bispecific monoclonal antibody. After approximately 7 days, when 98% of these cells co-expressed CD3 and CD4, they were infected with HIV-1 with or without retrocyclin or other test peptide. These cells were maintained in RPMI containing 10% FCS supplemented with 2 mM glutamine, 100 U of penicillin/ml, 10 μg of streptomycin/ml, and 50 U of interleukin 2/ml (R10-50 media).
The p24 assay results shown in FIG. 9 are on a logarithmic scale. A horizontal reference line that passes through 100 on the ordinate scale corresponds to […] of p24 antigen. Results from 3 experiments (each performed with PBMC from a different donor) are shown.

| Molecule | inhibition of HIV-1 replication (p24) |
| --- | --- |
| R9Y-Retrocyclin [RC-107] | lack of efficacy |
| I2Y-Retrocyclin (cyclo(GYCRCICGRGICRCICGR); disulfide (positions not given here); ring closure inferred; not fully specified (bridges)) [RC-104, cyclic …] | considerable ability to protect cells; also recorded: substantial activity |

What follows are molecules tested on human red blood cells (assay: Hemagglutination of washed red blood cells in PBS). Conditions: not given.
Experimental: Hemagglutination was tested by adding the stated concentration of peptide to a well comprising red blood cells (shown in FIG. 22). When the RBC are agglutinated, they clump together and settle rapidly and form a diffuse circle covering much of the bottom of the well. In the absence of agglutination, they settle more slowly and form a compact red button in the center of the well.
Sequences of retrocyclin-related peptides that were synthesized and either tested for activity against HIV-1 (see FIGS. 21A and 21B) and/or for their ability to cause human red blood cells to hemagglutinate or both. NT signifies not tested. Linear sequences appear in the table, but all peptides were cyclic and contained three intramolecular disulfide bonds. Hemagglutination of washed human red blood cells was tested in PBS, at peptide concentrations of 50, 25, 12.5 6.25 and 3.12 μg/ml. The lowest concentrations that caused hemagglutination are shown. Peptide concentrations were determined by amino acid analysis or by AUC (area under the curve) RP-HPLC analysis with reference to amino-acid analyzed standards.

| Molecule | Hemagglutination seen at a concentration of (lowest concentration that caused hemagglutination) [µg/mL] |
| --- | --- |
| R→K Retrocyclin-1 (cyclo(GICKCICGKGICKCICGR); disulfide (positions not given here); ring closure inferred; not fully specified (bridges)) [RC119] | 50 |

Same assay, conditions: washed human red blood cells in PBS

| Molecule | Hemagglutination seen at a concentration of (lowest concentration that caused hemagglutination) | hemagglutination compared with retrocyclin |
| --- | --- | --- |
| CC[C@H](C)[C@@H]1NC(=O)CNC(=O)[C@H](CCCNC(=N)N)NC(=O)CNC(=O)[C@@H]2CSSC[C@H](NC1=O)C(=O)N[C@@H](CCCNC(=N)N)C(=O)N[C@H]1CSSC[C@H](NC(=O)[C@H](CCCCN)NC(=O)[C@@H]3CSSC[C@H](NC(=O)[C@H]([C@@H](C)CC)NC1=O)C(=O)NCC(=O)N[C@@H](CCCNC(=N)N)C(=O)N[C@@H](CCCNC(=N)N)C(=O)N[C@@H]([C@@H](C)CC)C(=O)N3)C(=O)N[C@@H]([C@@H](C)CC)C(=O)N2 [RC123D, Retrocyclin 2D] (cyclo(CGRGICRCICGRRICKCI); disulfide 1-6, 8-17, 10-15) | 50 µg/mL | – |
| CC[C@H](C)[C@@H]1NC(=O)CNC(=O)[C@H](CCCNC(=N)N)NC(=O)CNC(=O)[C@@H]2CSSC[C@H](NC1=O)C(=O)N[C@@H](CCCNC(=N)N)C(=O)N[C@H]1CSSC[C@H](NC(=O)[C@H](CCCNC(=N)N)NC(=O)[C@@H]3CSSC[C@H](NC(=O)[C@H]([C@@H](C)CC)NC1=O)C(=O)NCC(=O)N[C@@H](CCCCN)C(=O)N[C@@H](CCCNC(=N)N)C(=O)N[C@@H]([C@@H](C)CC)C(=O)N3)C(=O)N[C@@H]([C@@H](C)CC)C(=O)N2 [RC123A, Retrocyclin 2A] (cyclo(CGKRICRCICGRGICRCI); disulfide 1-6, 8-17, 10-15) | 50 µg/mL | less hemagglutination than retrocyclin-1 or retrocyclin-2 |
| CC[C@@H](C)[C@H]1NC(=O)CNC(=O)[C@@H](CCCCN)NC(=O)CNC(=O)[C@H]2CSSC[C@@H](NC1=O)C(=O)N[C@H](CCCNC(=N)N)C(=O)N[C@@H]1CSSC[C@@H](NC(=O)[C@@H](CCCNC(=N)N)NC(=O)[C@H]3CSSC[C@@H](NC(=O)[C@@H]([C@H](C)CC)NC1=O)C(=O)NCC(=O)N[C@H](CCCNC(=N)N)C(=O)NCC(=O)N[C@H]([C@H](C)CC)C(=O)N3)C(=O)N[C@H]([C@H](C)CC)C(=O)N2 [RC-113, enantio-RC-101] | 50 µg/mL | less hemagglutination than retrocyclin-1 or retrocyclin-2 |
| CC[C@@H](C)[C@H]1NC(=O)CNC(=O)[C@@H](CCCNC(=N)N)NC(=O)CNC(=O)[C@H]2CSSC[C@@H](NC1=O)C(=O)N[C@H](CCCNC(=N)N)C(=O)N[C@@H]1CSSC[C@@H](NC(=O)[C@@H](CCCNC(=N)N)NC(=O)[C@H]3CSSC[C@@H](NC(=O)[C@@H]([C@H](C)CC)NC1=O)C(=O)NCC(=O)N[C@H](CCCNC(=N)N)C(=O)NCC(=O)N[C@H]([C@H](C)CC)C(=O)N3)C(=O)N[C@H]([C@H](C)CC)C(=O)N2 [RC-112, enantio-retrocyclin] (cyclo(G[dI][dC][dR][dC][dI][dC]G[dR]G[dI][dC][dR][dC][dI][dC]G[dR]); disulfide 3-16, 5-14, 7-12) | 50 µg/mL | less hemagglutination than retrocyclin-1 or retrocyclin-2 |
| CC[C@H](C)[C@@H]1NC(=O)CNC(=O)[C@H](CCCNC(=N)N)NC(=O)CNC(=O)[C@@H]2CSSC[C@H](NC1=O)C(=O)N[C@@H](CCCNC(=N)N)C(=O)N[C@H]1CSSC[C@H](NC(=O)[C@H](CCCNC(=N)N)NC(=O)[C@@H]3CSSC[C@H](NC(=O)[C@H]([C@@H](C)CC)NC1=O)C(=O)NCC(=O)N[C@@H](CCCCN)C(=O)N[C@@H](CCCCN)C(=O)N[C@@H]([C@@H](C)CC)C(=O)N3)C(=O)N[C@@H]([C@@H](C)CC)C(=O)N2 [RC123B, Retrocyclin 2B] (cyclo(CGKKICRCICGRGICRCI); disulfide 1-6, 8-17, 10-15) | 6.25 µg/mL | – |
| CC[C@H](C)[C@@H]1NC(=O)CNC(=O)[C@H](CCCNC(=N)N)NC(=O)CNC(=O)[C@@H]2CSSC[C@H](NC1=O)C(=O)N[C@@H](CCCCN)C(=O)N[C@H]1CSSC[C@H](NC(=O)[C@H](CCCNC(=N)N)NC(=O)[C@@H]3CSSC[C@H](NC(=O)[C@H]([C@@H](C)CC)NC1=O)C(=O)NCC(=O)N[C@@H](CCCNC(=N)N)C(=O)N[C@@H](CCCNC(=N)N)C(=O)N[C@@H]([C@@H](C)CC)C(=O)N3)C(=O)N[C@@H]([C@@H](C)CC)C(=O)N2 [RC123E, Retrocyclin 2E] (cyclo(CGRGICKCICGRRICRCI); disulfide 1-6, 8-17, 10-15) | 25 µg/mL | – |
| CC[C@H](C)[C@@H]1NC(=O)CNC(=O)[C@H](CCCCN)NC(=O)CNC(=O)[C@@H]2CSSC[C@H](NC1=O)C(=O)N[C@@H](CCCNC(=N)N)C(=O)N[C@H]1CSSC[C@H](NC(=O)[C@H](CCCNC(=N)N)NC(=O)[C@@H]3CSSC[C@H](NC(=O)[C@H](Cc4ccc(O)cc4)NC1=O)C(=O)NCC(=O)N[C@@H](CCCNC(=N)N)C(=O)NCC(=O)N[C@@H]([C@@H](C)CC)C(=O)N3)C(=O)N[C@@H]([C@@H](C)CC)C(=O)N2 [RC-114, RC-101/103 hybrid] (cyclo(CGKGICRCYCGRGICRCI); disulfide 1-6, 8-17, 10-15) | 200 µg/mL and > 150 µg/mL | much less hemagglutination than retrocyclin |
| CC[C@H](C)[C@@H]1NC(=O)CNC(=O)[C@H](CCCNC(=N)N)NC(=O)CNC(=O)[C@@H]2CSSC[C@H](NC1=O)C(=O)N[C@@H](CCCNC(=N)N)C(=O)N[C@H]1CSSC[C@H](NC(=O)[C@H](CCCNC(=N)N)NC(=O)[C@@H]3CSSC[C@H](NC(=O)[C@H]([C@@H](C)CC)NC1=O)C(=O)NCC(=O)N[C@@H](CCCNC(=N)N)C(=O)N[C@@H](CCCCN)C(=O)N[C@@H]([C@@H](C)CC)C(=O)N3)C(=O)N[C@@H]([C@@H](C)CC)C(=O)N2 [RC123C, Retrocyclin 2C] (cyclo(CGRGICRCICGRKICRCI); disulfide 1-6, 8-17, 10-15) | 50 µg/mL | less hemagglutination than retrocyclin-1 or retrocyclin-2 |
